Assay type in all cases: cell-based
The target in test [1] is T1, PLK1 (Homo sapiens, UniProt P53350).
T1 construct: endogenous in cells; host or cells: HeLa LgBit (Plk1-HiBit KI): HeLa stably expressing LgBit, with a CRISPR/Cas9 knock-in of HiBit at the endogenous PLK1 locus
Kind of test: Luciferase assay for PLK1 in HeLa LgBit (Plk1-HiBit KI) cell line. The conditions noted are these: 300 nM compound, luminescence after 9 hours. The gist of the method: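 Luminescence, followed in real time after adding compound at 300 nM and Endurazine substrate, is reported relative to DMSO-treated wells. Cells are a HeLa LgBit line with a Plk1-HiBit knock-in, synchronized by 2 mM thymidine for 24 h, released, and cultured 18 h before treatment.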

For test [2], the system named is MRC-5 cell line. Kind of test: Cell viability assay for MRC-5 cell line (EZ-Cytox). Conditions: Homo sapiens, MRC5, 120 h; MRC-5 normal cell line, 5 days, 10000 nM to 1.52 nM; N.D. = no cytotoxicity until 10 μM; read-out: Activity: IC50 value of Exemplary Compound to MRC-5 cell line. As for the experimental part:
4. Cell Viability Assay for MRC-5 Cell Line
(1) Culture of MRC-5 Cell Line
Passage of cultured cells was maintained within P15.
(2) Treatment of Compounds of the Present Invention
Then, it was cultured in 37° C.
(3) Cytotoxicity Experiment
CO2 incubator for 4 hours.

Test [3] relates to NCI-H526 cell line. Kind of test: Cell viability assay for H526 cell (EZ-Cytox). Conditions: Homo sapiens, NCI-H526, 120 h; H526 cells, 5 days, 3000 nM to 0.46 nM. An outline of the steps:
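Read-out was EZ-Cytox colorimetric absorbance at 450 nm, taken after brief plate shaking, with IC50 derived. Before reading, H526 cells had been cultured with test compound for 5 days.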

The IC50 is the point on the concentration scale where inhibition reaches its midpoint.

T1 sequence (P53350 whole entry): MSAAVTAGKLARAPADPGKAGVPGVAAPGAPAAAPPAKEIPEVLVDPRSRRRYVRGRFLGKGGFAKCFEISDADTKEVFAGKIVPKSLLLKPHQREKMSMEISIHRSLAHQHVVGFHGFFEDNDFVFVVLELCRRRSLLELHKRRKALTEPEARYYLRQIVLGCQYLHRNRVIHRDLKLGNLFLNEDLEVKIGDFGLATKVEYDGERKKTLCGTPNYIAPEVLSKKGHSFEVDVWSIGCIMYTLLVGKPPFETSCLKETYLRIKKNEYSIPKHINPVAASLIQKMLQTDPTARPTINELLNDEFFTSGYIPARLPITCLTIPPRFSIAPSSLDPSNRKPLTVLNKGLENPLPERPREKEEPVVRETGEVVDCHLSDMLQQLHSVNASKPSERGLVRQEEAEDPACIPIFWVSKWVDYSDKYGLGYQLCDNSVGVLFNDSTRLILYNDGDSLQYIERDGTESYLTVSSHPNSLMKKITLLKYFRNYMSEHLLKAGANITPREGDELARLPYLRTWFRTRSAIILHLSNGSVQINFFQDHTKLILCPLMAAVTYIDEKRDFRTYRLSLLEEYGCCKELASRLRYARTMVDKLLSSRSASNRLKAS

Regarding `COc1cc(C(=O)NN2CCC(N3CC4(CCN(c5cccc6c5C(=O)N(C5CCC(=O)NC5=O)C6=O)CC4)C3)CC2)c(F)cc1Nc1ncc2c(n1)N(C1CCCC1)CC(F)(F)C(=O)N2C` (stereo not drawn) [Compound 209, 4-((9-cyclopentyl-7,7-difluoro-5-methyl-6-oxo-6,7,8,9-tetrahydro-5H-pyrimido[4,5-b][1,4]diazepin-2-yl)amino)-N-(4-(7-(2-(2,6-dioxopiperidin-3-yl)-1,3-dioxoisoindolin-4-yl)-2,7-diazaspiro[3.5]nonan-2-yl)piperidin-1-yl)-2-fluoro-5-methoxybenzamide], the “Activity: ratio of the luminescense value of each Exemplary Compound treatment group to DMSO treatment group” value (from here on “Activity: ratio”) in test [1] was “++ (++<0.6)”. Moreover, the IC50 is 5.31 µM in test [2] and < 0.05 µM in test [3].
`COc1cc(C(=O)NN2CCN(C3CCN(c4ccc5c(c4)C(=O)N(C4CCC(=O)NC4=O)C5=O)C3)CC2)ccc1Nc1ncc2c(n1)N(C1CCCC1)CC(F)(F)C(=O)N2C` (stereo not drawn) [Compound 56, 4-((9-cyclopentyl-7,7-difluoro-5-methyl-6-oxo-6,7,8,9-tetrahydro-5H-pyrimido[4,5-b][1,4]diazepin-2-yl)amino)-N-(4-(1-(2-(2,6-dioxopiperidin-3-yl)-1,3-dioxoisoindolin-5-yl)pyrrolidin-3-yl)piperazin-1-yl)-3-methoxybenzamide]: the “Activity: ratio” value in test [1] is listed as “++ (++<0.6)”. Further, the IC50 in test [2] was > 10 µM; in test [3] it was < 0.03 µM.
For `COc1cc(C(=O)N2CCN(CCCCN3CCN(c4ccc5c(c4)C(=O)N(C4CCC(=O)NC4=O)C5=O)CC3)CC2)ccc1Nc1ncc2c(n1)N(C1CCCC1)CC(F)(F)C(=O)N2C` (stereo not drawn) [Compound 91, 5-(4-(4-(4-(4-((9-cyclopentyl-7,7-difluoro-5-methyl-6-oxo-6,7,8,9-tetrahydro-5H-pyrimido[4,5-b][1,4]diazepin-2-yl)amino)-3-methoxybenzoyl)piperazin-1-yl)butyl)piperazin-1-yl)-2-(2,6-dioxopiperidin-3-yl)isoindoline-1,3-dione] the same measures were “++ (++<0.6)”, > 10 µM and < 0.4 µM.
For `COc1cc(C(=O)NN2CCC(CCN3CCN(c4ccc5c(c4)C(=O)N(C4CCC(=O)NC4=O)C5=O)CC3)C2)ccc1Nc1ncc2c(n1)N(C1CCCC1)CC(F)(F)C(=O)N2C` (stereo not drawn) [Compound 149, 4-((9-cyclopentyl-7,7-difluoro-5-methyl-6-oxo-6,7,8,9-tetrahydro-5H-pyrimido[4,5-b][1,4]diazepin-2-yl)amino)-N-(3-(2-(4-(2-(2,6-dioxopiperidin-3-yl)-1,3-dioxoisoindolin-5-yl)piperazin-1-yl)ethyl)pyrrolidin-1-yl)-3-methoxybenzamide] the same measures were “++ (++<0.6)”, > 10 µM and < 0.05 µM.
For the molecule `COc1cc(C(=O)NN2CCC(CN3CCN(c4cccc5c4CN(C4CCC(=O)NC4=O)C5=O)CC3)C(F)(F)C2)ccc1Nc1ncc2c(n1)N(C(C)C)CC(F)(F)C(=O)N2C` (stereo not drawn) [Compound 158, 4-((7,7-difluoro-9-isopropyl-5-methyl-6-oxo-6,7,8,9-tetrahydro-5H-pyrimido[4,5-b][1,4]diazepin-2-yl)amino)-N-(4-((4-(2-(2,6-dioxopiperidin-3-yl)-1-oxoisoindolin-4-yl)piperazin-1-yl)methyl)-3,3-difluoropiperidin-1-yl)-3-methoxybenzamide], the “Activity: ratio” value in test [1] is “+++ (+++: <0.3)”. Also, the IC50 was 39.3 µM in test [2] and < 0.05 µM in test [3].
For `COc1cc(C(=O)N[C@@H]2CCN(C(=O)COc3cccc4c3C(=O)N(C3CCC(=O)NC3=O)C4=O)C2)ccc1Nc1ncc2c(n1)N(C1CCCC1)CC(F)(F)C(=O)N2C` (stereo partly drawn) [Compound 39, 4-((9-cyclopentyl-7,7-difluoro-5-methyl-6-oxo-6,7,8,9-tetrahydro-5H-pyrimido[4,5-b][1,4]diazepin-2-yl)amino)-N-((3R)-1-(2-((2-(2,6-dioxopiperidin-3-yl)-1,3-dioxoisoindolin-4-yl)oxy)acetyl)pyrrolidin-3-yl)-3-methoxybenzamide] the same measures were “++ (++<0.6)”, > 10 µM and < 0.1 µM.
For the molecule `COc1cc(C(=O)NN2CCN(C3CCN(c4cccc5c4C(=O)N(C4CCC(=O)NC4=O)C5=O)CC3(F)F)CC2)ccc1Nc1ncc2c(n1)N(C(C)C)CC(F)(F)C(=O)N2C` (stereo not drawn) [Compound 167, 4-((7,7-difluoro-9-isopropyl-5-methyl-6-oxo-6,7,8,9-tetrahydro-5H-pyrimido[4,5-b][1,4]diazepin-2-yl)amino)-N-(4-(1-(2-(2,6-dioxopiperidin-3-yl)-1,3-dioxoisoindolin-4-yl)-3,3-difluoropiperidin-4-yl)piperazin-1-yl)-3-methoxybenzamide], the “Activity: ratio” value in test [1] is given as “+++ (+++: <0.3)”. The IC50 is > 10 µM in test [2] and < 0.03 µM in test [3].
On the same counts, the results for `COc1cc(C(=O)N[C@H]2CC[C@H](N(C)CCCOc3cccc4c3C(=O)N(C3CCC(=O)NC3=O)C4=O)CC2)ccc1Nc1ncc2c(n1)N(C1CCCC1)CC(F)(F)C(=O)N2C` (stereo partly drawn) [Compound 15, 4-((9-cyclopentyl-7,7-difluoro-5-methyl-6-oxo-6,7,8,9-tetrahydro-5H-pyrimido[4,5-b][1,4]diazepin-2-yl)amino)-N-((1r,4r)-4-((3-((2-(2,6-dioxopiperidin-3-yl)-1,3-dioxoisoindolin-4-yl)oxy)propyl)(methyl)amino)cyclohexyl)-3-methoxybenzamide] are “++ (++<0.6)”, 16.7 µM and < 0.05 µM.
For `COc1cc(C(=O)NC2CCN(C(=O)CCCOc3cccc4c3CN(C3CCC(=O)NC3=O)C4=O)CC2)ccc1Nc1ncc2c(n1)N(C1CCCC1)CC(F)(F)C(=O)N2C` (stereo not drawn) [Compound 32, 4-((9-cyclopentyl-7,7-difluoro-5-methyl-6-oxo-6,7,8,9-tetrahydro-5H-pyrimido[4,5-b][1,4]diazepin-2-yl)amino)-N-(1-(4-((2-(2,6-dioxopiperidin-3-yl)-1-oxoisoindolin-4-yl)oxy)butanoyl)piperidin-4-yl)-3-methoxybenzamide] the same measures were “++ (++<0.6)”, > 10 µM and < 0.05 µM.
For `COc1cc(C(=O)N2CCN(C/C=C/CN3CCN(c4ccc5c(c4)C(=O)N(C4CCC(=O)NC4=O)C5=O)CC3)CC2)ccc1Nc1ncc2c(n1)N(C1CCCC1)CC(F)(F)C(=O)N2C` (stereo not drawn) [Compound 92, (E)-5-(4-(4-(4-(4-((9-cyclopentyl-7,7-difluoro-5-methyl-6-oxo-6,7,8,9-tetrahydro-5H-pyrimido[4,5-b][1,4]diazepin-2-yl)amino)-3-methoxybenzoyl)piperazin-1-yl)but-2-en-1-yl)piperazin-1-yl)-2-(2,6-dioxopiperidin-3-yl)isoindoline-1,3-dione] the same measures were “++ (++<0.6)”, > 10 µM and < 0.2 µM.
`COc1cc(C(=O)NN2CCC(N3CC4(CCN(c5cccc6c5C(=O)N(C5CCC(=O)NC5=O)C6=O)CC4)C3)CC2)ccc1Nc1ncc2c(n1)N(C1CCCC1)CC(F)(F)C(=O)N2C` (stereo not drawn) [Compound 211, 4-((9-cyclopentyl-7,7-difluoro-5-methyl-6-oxo-6,7,8,9-tetrahydro-5H-pyrimido[4,5-b][1,4]diazepin-2-yl)amino)-N-(4-(7-(2-(2,6-dioxopiperidin-3-yl)-1,3-dioxoisoindolin-4-yl)-2,7-diazaspiro[3.5]nonan-2-yl)piperidin-1-yl)-3-methoxybenzamide]: the “Activity: ratio” value in test [1] was “+++ (+++: <0.3)”. Moreover, the IC50 is > 10 µM in test [2] and < 0.03 µM in test [3].
For the molecule `COc1cc(C(=O)NC2CCN(C[C@H]3CCN(c4ccc5c(c4)C(=O)N(C4CCC(=O)NC4=O)C5=O)C3)CC2)ccc1Nc1ncc2c(n1)N(C1CCCC1)CC(F)(F)C(=O)N2C` (stereo partly drawn) [Compound 49, 4-((9-cyclopentyl-7,7-difluoro-5-methyl-6-oxo-6,7,8,9-tetrahydro-5H-pyrimido[4,5-b][1,4]diazepin-2-yl)amino)-N-(1-(((3R)-1-(2-(2,6-dioxopiperidin-3-yl)-1,3-dioxoisoindolin-5-yl)pyrrolidin-3-yl)methyl)piperidin-4-yl)-3-methoxybenzamide], the “Activity: ratio” value in test [1] is “++ (++<0.6)”. Also, the IC50 in test [2] was > 10 µM; in test [3] it was < 0.05 µM.
For `COc1cc(C(=O)N[C@H]2CC[C@H](N3CCN(c4ccc5c(c4)C(=O)N(C4CCC(=O)NC4=O)C5=O)CC3)CC2)ccc1Nc1ncc2c(n1)N(C(C)C)CC(F)(F)C(=O)N2C` (stereo partly drawn) [Compound 150, 4-((7,7-difluoro-9-isopropyl-5-methyl-6-oxo-6,7,8,9-tetrahydro-5H-pyrimido[4,5-b][1,4]diazepin-2-yl)amino)-N-((1r,4r)-4-(4-(2-(2,6-dioxopiperidin-3-yl)-1,3-dioxoisoindolin-5-yl)piperazin-1-yl)cyclohexyl)-3-methoxybenzamide] the same measures were “++ (++<0.6)”, 19.3 µM and < 0.05 µM.

Values taken from US20250114460A1, “NOVEL PLK1 DEGRADATION INDUCING COMPOUND” (UPPTHERA, INC., priority 2021, published 2025).
